Consider two compounds from patent US20250362274A1, “SYSTEMS AND METHODS TO DETERMINE PARTITION COEFFICIENTS BETWEEN CRUDE OIL AND AN AQUEOUS PHASE” (Saudi Arabian Oil Company, priority 2024, published 2025).

SMILES strings stand for the structures.

Data set [1] is described as follows: Partition coefficient between crude oil and aqueous phase (microfluidic mixer, functionalized glass fiber separation tube, HPLC UV-Vis). It counts as physicochemical. Particulars: tracer at 100 ppm, after mixing with crude oil and separation. The method, then: In step 2700, the partition coefficient is calculated using the measurement from step 2600 and the reference points and calibration curve from step 2100. The partition coefficient of a substance “A” is defined as
where [A]org is the concentration of substance A in the organic phase, and [A]aq is the concentration of substance A in the water phase, with equal volumes of organic and aqueous phases at equilibrium. The detection system 1300 and the calibration curve from the step 2100 can provide [A]aq. [A]total can be obtained from the step 2200 and [A]org can be calculated as [A]org=[A]total−[A]aq.
A partition coefficient detection system was constructed using a teardrop microfluidic mixer (micronit), a functionalized glass fiber packed capillary tube oil/water phase separator, and a 1D HPLC UV-Vis detector (Agilent, 1290 Infinity HPLC system).
To prepare the functionalized glass fiber packed capillary tube oil/water phase separator, a hydrophobic fiber filtration material was prepared by chemically functionalizing surfaces of glass wool. […] The washed glass wool was immersed in 20 mL Piranha solution (3:1 mixture of concentrated sulfuric acid and 30% hydrogen peroxide) for 30 mins, then the treated glass wool was removed from the Piranha solution and rinsed with DI water until the pH value of the water used for rinsing was near neutral pH (pH=7±1), as monitored by a pH meter. […]

The conditions of data set [2]: Hansch, C. et al. (1995); cited from earlier work.

Regarding `O=C(O)c1ccccc1F` [2-fluorobenzoic acid], in data set [1], the “partitioning behavior between crude oil and aqueous phase (FIG. 4)” value was “did not show partitioning behavior”.

`OCc1ccc(Cl)cc1` [4-CBA, 4-chlorobenzyl alcohol]: the “partition coefficient (log P), value from the literature” value in data set [2] is reported as 1.96. Also, the “partitioning behavior between crude oil and aqueous phase (FIG. 4)” value in data set [1] is “did show partitioning behavior”.
